The source of these data is ChEMBL document CHEMBL1152560, “Substituted 2-arylbenzothiazoles as kinase inhibitors: hit-to-lead optimization” (Bioorg Med Chem, 2009).

Experiment [1] deals with Mitogen-activated protein kinase 14 (Homo sapiens) (UniProt Q16539). Nature of the experiment: Residual activity of p38alpha at 0.1 uM by microplate scintillation counting.
Experiment [2] has as its target Casein kinase I isoform epsilon (Homo sapiens) (UniProt P49674). Nature of the experiment: Residual activity of CK1epsilon at 10 uM by microplate scintillation counting.
Experiment [3] addresses Glycogen synthase kinase-3 alpha (Homo sapiens) (UniProt P49840). Nature of the experiment: Residual activity of GSK3alpha at 10 uM by microplate scintillation counting.
Experiment [4] has as its target Maternal embryonic leucine zipper kinase (Homo sapiens) (UniProt Q14680). Nature of the experiment: Residual activity of MELK at 1 uM by microplate scintillation counting.
Experiment [5] has as its target Ephrin type-A receptor 4 (Homo sapiens) (UniProt P54764). Nature of the experiment: Residual activity of EPHA4 at 1 uM by microplate scintillation counting.
Experiment [6] has as its target 3-phosphoinositide-dependent protein kinase 1 (Homo sapiens) (UniProt O15530). Nature of the experiment: Residual activity of PDK1 at 10 uM by microplate scintillation counting.
Experiment [7] has as its target Death-associated protein kinase 3 (Homo sapiens) (UniProt O43293). Nature of the experiment: Residual activity of DAPK3 at 0.1 uM by microplate scintillation counting.
For experiment [8], the target named is Receptor-type tyrosine-protein kinase FLT3 (Homo sapiens) (UniProt P36888). Nature of the experiment: Residual activity of wild type FLT3 at 0.1 uM by microplate scintillation counting.
The target of experiment [9] is Cyclin-dependent kinase 7/ cyclin H (Homo sapiens) (UniProt P51946+P50613). Nature of the experiment: Residual activity of CDK7/CyclinH/MAT1 at 0.1 uM by microplate scintillation counting. Format: protein-complex assay.
Experiment [10] deals with Interleukin-1 receptor-associated kinase 1 (Homo sapiens) (UniProt P51617). Nature of the experiment: Residual activity of IRAKI at 10 uM by microplate scintillation counting.
In experiment [11] the target is T1, cGMP-dependent protein kinase 1 (Homo sapiens) (UniProt Q13976).
T1 sequence (whole entry): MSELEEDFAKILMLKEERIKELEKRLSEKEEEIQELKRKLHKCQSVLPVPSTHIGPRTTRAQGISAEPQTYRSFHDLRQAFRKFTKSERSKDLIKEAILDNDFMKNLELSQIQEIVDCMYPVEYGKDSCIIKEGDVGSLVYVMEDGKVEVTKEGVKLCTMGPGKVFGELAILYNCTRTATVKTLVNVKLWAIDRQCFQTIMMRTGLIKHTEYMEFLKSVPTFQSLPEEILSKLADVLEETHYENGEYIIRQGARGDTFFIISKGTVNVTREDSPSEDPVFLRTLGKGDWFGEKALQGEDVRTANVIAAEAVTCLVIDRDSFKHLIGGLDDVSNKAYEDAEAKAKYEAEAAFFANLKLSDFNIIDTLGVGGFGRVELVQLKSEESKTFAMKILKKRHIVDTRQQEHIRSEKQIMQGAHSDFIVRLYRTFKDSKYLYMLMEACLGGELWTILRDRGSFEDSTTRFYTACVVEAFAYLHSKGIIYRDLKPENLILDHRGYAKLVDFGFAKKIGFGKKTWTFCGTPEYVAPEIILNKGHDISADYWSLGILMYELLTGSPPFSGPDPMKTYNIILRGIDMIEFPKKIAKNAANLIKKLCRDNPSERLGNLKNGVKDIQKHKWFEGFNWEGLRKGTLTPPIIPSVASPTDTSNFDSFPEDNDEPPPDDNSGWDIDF
Nature of the experiment: Residual activity of PRKG1 at 1 uM by microplate scintillation counting.

Experiment [12] has as its target T2, Dual specificity protein kinase TTK (Homo sapiens) (UniProt P33981).
T2 sequence (whole entry): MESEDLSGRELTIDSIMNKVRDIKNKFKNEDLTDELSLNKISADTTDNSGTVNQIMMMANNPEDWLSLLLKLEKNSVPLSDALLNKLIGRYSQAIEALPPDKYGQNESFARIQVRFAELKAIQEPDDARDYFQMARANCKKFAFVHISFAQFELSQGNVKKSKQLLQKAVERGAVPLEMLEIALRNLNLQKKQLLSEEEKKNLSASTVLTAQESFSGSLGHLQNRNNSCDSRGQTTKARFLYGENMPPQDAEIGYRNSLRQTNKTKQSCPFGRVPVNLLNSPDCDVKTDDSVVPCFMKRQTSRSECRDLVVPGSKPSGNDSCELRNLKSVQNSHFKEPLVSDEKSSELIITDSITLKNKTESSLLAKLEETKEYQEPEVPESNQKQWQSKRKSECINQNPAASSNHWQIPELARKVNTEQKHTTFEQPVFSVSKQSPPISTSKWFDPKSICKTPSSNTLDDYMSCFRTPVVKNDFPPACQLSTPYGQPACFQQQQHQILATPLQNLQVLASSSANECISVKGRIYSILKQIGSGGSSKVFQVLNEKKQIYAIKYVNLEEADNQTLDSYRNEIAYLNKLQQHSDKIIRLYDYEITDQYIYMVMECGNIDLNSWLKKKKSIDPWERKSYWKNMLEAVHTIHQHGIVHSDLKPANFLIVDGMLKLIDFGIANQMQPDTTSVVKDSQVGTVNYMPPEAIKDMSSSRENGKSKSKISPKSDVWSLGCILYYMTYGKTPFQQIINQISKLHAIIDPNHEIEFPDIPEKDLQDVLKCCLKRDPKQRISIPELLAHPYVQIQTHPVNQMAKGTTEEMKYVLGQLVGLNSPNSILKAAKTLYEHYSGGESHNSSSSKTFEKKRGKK
Nature of the experiment: Residual activity of TTK at 1 uM by microplate scintillation counting.

The subject of experiment [13] is T3, Dual specificity mitogen-activated protein kinase kinase 6 (Homo sapiens), P52564 [S207D,T211D].
T3 sequence (whole entry): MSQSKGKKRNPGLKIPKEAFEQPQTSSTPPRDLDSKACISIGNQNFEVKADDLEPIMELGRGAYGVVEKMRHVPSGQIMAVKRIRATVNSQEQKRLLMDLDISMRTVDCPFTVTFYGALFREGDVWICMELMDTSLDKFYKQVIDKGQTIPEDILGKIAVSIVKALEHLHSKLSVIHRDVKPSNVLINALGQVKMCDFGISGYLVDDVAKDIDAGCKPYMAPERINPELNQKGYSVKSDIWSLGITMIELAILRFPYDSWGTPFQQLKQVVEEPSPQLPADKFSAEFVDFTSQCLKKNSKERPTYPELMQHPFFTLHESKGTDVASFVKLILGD
Nature of the experiment: Residual activity of MKK6 S207D/T211D mutant at 10 uM by microplate scintillation counting.

Experiment [14] deals with MAP kinase-activated protein kinase 3 (Homo sapiens) (UniProt Q16644). Nature of the experiment: Residual activity of MAPKAPK3 at 10 uM by microplate scintillation counting.
Experiment [15] has as its target Protein-tyrosine kinase 2-beta (Homo sapiens) (UniProt Q14289). Nature of the experiment: Residual activity of PYK2 at 10 uM by microplate scintillation counting.
Experiment [16] deals with Calcium/calmodulin-dependent protein kinase type II subunit beta (Homo sapiens) (UniProt Q13554). Nature of the experiment: Residual activity of CAMK2B at 0.1 uM by microplate scintillation counting.
The target in experiment [17] is Ribosomal protein S6 kinase alpha-1 (Homo sapiens) (UniProt Q15418). Nature of the experiment: Residual activity of RPS6KA1 at 1 uM by microplate scintillation counting.

Receptor-type tyrosine-protein kinase FLT3 (Homo sapiens), sequence (P36888 whole entry): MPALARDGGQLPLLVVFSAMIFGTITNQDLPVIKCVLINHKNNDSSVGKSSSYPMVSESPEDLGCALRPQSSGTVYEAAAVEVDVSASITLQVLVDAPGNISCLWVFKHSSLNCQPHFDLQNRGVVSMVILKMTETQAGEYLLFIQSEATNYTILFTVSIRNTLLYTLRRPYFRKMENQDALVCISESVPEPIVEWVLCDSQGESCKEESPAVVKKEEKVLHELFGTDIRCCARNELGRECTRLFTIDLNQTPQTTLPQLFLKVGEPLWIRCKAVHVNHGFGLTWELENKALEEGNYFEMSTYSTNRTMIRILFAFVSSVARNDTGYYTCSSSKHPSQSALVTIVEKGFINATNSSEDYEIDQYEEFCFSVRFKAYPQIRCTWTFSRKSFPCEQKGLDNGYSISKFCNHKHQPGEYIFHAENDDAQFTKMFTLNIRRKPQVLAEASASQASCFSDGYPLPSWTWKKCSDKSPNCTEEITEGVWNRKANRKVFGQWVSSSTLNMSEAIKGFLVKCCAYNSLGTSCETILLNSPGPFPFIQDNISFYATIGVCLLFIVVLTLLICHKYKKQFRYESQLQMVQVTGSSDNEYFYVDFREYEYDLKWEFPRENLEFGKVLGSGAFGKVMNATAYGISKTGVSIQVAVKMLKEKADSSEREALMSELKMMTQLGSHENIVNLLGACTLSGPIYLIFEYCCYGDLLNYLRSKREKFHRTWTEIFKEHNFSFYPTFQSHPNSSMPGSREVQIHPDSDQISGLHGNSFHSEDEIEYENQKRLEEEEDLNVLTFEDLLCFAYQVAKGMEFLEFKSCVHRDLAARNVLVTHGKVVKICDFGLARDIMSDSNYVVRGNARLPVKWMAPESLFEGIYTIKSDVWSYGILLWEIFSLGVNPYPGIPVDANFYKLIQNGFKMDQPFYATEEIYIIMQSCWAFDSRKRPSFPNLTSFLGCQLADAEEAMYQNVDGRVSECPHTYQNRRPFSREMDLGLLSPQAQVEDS
Interleukin-1 receptor-associated kinase 1 (Homo sapiens), sequence (P51617 whole entry, looked up): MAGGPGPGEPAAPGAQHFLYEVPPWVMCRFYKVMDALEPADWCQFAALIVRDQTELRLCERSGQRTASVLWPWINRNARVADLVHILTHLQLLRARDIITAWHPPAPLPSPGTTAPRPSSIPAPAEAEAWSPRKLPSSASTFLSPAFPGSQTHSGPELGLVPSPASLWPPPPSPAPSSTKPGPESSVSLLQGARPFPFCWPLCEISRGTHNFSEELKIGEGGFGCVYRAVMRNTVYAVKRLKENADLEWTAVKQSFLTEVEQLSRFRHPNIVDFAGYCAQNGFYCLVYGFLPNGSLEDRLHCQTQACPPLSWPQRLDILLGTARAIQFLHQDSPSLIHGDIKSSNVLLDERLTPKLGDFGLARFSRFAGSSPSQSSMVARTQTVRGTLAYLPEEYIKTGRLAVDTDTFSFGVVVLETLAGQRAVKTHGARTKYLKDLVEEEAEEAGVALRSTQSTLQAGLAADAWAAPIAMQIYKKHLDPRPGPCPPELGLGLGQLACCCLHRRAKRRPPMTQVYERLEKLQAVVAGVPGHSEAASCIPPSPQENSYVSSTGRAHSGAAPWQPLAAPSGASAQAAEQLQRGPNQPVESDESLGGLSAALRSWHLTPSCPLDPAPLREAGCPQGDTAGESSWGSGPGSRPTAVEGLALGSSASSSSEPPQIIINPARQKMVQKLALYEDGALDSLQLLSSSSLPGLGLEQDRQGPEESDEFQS
Casein kinase I isoform epsilon (Homo sapiens), sequence (P49674 whole entry, looked up, canonical isoform): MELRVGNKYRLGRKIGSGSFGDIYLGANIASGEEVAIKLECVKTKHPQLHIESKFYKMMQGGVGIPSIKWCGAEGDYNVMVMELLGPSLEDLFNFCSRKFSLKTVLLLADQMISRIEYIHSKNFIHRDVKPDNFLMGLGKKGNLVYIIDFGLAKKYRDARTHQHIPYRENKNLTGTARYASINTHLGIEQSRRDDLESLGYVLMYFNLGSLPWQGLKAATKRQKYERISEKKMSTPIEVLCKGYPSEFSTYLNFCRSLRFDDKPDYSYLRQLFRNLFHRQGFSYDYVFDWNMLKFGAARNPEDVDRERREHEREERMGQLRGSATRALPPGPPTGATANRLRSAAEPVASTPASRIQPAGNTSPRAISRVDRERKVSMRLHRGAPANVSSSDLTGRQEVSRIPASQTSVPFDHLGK
MAP kinase-activated protein kinase 3 (Homo sapiens), sequence (Q16644 whole entry, looked up): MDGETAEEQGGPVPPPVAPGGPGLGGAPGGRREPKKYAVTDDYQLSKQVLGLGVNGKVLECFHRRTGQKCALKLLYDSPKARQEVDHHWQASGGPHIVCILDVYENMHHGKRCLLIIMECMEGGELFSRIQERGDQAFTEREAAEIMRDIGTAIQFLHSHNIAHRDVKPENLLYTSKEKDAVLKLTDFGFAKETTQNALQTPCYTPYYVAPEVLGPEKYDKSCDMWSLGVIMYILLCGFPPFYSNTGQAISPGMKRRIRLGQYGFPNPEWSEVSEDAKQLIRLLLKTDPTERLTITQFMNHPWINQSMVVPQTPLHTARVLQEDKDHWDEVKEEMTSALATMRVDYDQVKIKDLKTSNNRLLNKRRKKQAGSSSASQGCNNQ
Maternal embryonic leucine zipper kinase (Homo sapiens), sequence (Q14680 whole entry, looked up): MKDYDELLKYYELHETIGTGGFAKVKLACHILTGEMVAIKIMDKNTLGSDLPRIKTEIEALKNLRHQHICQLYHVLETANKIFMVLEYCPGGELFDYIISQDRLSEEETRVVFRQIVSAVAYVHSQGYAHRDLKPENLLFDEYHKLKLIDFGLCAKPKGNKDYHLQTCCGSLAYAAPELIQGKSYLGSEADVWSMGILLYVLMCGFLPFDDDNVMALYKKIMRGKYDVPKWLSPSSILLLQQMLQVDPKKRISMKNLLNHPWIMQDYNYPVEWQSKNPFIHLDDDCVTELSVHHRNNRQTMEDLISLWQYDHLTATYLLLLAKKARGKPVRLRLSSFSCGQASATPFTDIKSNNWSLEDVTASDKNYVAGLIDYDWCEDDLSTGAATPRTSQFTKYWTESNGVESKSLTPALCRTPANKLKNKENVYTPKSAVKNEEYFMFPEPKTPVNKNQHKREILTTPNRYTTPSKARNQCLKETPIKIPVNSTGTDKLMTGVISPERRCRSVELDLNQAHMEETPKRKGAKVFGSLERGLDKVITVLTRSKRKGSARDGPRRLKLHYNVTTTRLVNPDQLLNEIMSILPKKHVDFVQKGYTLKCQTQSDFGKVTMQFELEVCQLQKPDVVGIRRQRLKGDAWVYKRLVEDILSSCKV
Mitogen-activated protein kinase 14 (Homo sapiens), sequence (Q16539 whole entry, canonical isoform): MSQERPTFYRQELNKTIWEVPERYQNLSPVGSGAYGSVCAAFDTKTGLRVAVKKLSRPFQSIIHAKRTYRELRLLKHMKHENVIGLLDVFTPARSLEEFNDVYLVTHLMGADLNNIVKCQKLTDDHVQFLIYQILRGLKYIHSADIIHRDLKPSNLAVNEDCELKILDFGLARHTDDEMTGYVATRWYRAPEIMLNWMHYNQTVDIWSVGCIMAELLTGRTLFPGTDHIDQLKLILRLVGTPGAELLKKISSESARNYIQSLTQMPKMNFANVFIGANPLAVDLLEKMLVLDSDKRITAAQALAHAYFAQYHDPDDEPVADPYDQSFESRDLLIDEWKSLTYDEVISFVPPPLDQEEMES
Ephrin type-A receptor 4 (Homo sapiens), sequence (P54764 whole entry): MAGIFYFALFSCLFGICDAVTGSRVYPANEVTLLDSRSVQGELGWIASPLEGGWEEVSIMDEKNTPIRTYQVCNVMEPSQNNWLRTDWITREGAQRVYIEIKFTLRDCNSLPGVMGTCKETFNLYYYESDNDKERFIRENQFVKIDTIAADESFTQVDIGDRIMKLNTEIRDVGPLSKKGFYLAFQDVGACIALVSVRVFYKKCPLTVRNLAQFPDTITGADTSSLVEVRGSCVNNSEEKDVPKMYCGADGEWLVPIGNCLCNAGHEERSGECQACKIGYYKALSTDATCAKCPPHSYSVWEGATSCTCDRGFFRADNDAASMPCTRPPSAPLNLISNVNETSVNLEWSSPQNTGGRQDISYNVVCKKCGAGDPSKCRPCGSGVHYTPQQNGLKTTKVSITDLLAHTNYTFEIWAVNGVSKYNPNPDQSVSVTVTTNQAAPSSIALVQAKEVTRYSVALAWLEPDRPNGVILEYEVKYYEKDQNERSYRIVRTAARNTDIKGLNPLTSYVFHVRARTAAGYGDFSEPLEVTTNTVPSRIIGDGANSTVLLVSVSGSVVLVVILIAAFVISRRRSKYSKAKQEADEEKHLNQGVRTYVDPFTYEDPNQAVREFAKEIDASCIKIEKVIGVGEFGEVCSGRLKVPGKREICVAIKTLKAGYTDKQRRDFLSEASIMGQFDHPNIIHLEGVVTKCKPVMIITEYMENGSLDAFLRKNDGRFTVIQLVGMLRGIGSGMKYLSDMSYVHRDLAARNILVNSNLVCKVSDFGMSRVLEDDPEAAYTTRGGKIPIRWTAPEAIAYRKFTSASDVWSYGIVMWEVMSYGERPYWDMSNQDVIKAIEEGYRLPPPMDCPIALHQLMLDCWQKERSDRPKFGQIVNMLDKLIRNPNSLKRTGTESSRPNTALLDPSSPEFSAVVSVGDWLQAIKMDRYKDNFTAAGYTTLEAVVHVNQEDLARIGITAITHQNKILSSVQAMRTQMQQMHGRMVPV
Glycogen synthase kinase-3 alpha (Homo sapiens), sequence (P49840 2-483 limits assumed): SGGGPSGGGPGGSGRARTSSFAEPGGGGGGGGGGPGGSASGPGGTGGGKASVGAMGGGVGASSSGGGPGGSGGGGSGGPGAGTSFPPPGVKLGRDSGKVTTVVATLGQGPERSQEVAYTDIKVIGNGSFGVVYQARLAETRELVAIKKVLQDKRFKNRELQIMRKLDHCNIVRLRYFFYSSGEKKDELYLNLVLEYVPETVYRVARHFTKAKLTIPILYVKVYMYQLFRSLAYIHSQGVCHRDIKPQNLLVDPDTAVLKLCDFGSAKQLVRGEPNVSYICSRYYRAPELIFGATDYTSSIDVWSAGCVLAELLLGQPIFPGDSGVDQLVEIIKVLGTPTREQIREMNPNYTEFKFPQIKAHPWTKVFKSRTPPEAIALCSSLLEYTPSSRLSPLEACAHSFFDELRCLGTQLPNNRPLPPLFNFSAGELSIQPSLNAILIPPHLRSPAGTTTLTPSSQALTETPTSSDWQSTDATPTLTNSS

For the compound `COc1cc2c(Oc3ccc(-c4nc5ccccc5s4)cc3)ncnc2cc1OCCCN1CCN(C)CC1`, the residual activity amounted to 93% in [1]; 156% in [2]; 28% in experiment [3]; 106% in experiment [4]; 102% in experiment [5]; 67% in [6]. Besides, the residual activity in experiment [7] stood at 75%; in experiment [8], 112%; in experiment [9], 104%; in [10], 23%; in experiment [11], 87%; in [12], 101%. In addition, the residual activity in experiment [13] worked out at 185%; in experiment [14] it was 41%; in experiment [15], 95%; in experiment [16] it was 100%; in [17] it was 78%.

As for `COc1cc2c(Oc3ccc(-c4nc5ccccc5s4)cc3)ncnc2cc1OCCCN1CCCC1`, the residual activity in [1] is 100%; in [2], 147%; in experiment [3], 62%; in experiment [4], 78%; in experiment [5], 94%; in [6] it was 66%. The residual activity in [7] was found to be 89%; in experiment [8], 95%; in experiment [9] it was 97%; in experiment [10] it was 18%; in [11], 101%; in experiment [12], 85%. Moreover, the residual activity in experiment [13] was 148%; in experiment [14], 67%; in experiment [15], 113%; in [16], 73%; in experiment [17], 74%.

Consider `COc1cc2c(Oc3ccc(-c4nc5ccccc5s4)cc3F)ncnc2cc1OCCCN1CCN(C)CC1`, for which the residual activity in experiment [1] was found to be 101%; in [2], 97%; in experiment [3], 27%; in [4], 68%; in experiment [5], 92%; in experiment [6] it was 61%. Moreover, the residual activity in [7] was 74%; in experiment [8], 130%; in [9] it was 86%; in [10] it was 18%; in experiment [11], 97%; in experiment [12], 105%. Moreover, the residual activity in experiment [13] worked out at 164%; in experiment [14], 42%; in [15], 54%; in experiment [16] it was 65%; in experiment [17], 88%.
